Data as given in patent US7514106B2, “Compositions and methods for uterine relaxing” (Yangsen Biotechnology Co., Ltd., priority 2006, dated 2009).

What was measured:
[1] = tested on: KCl-stimulated rat uterine muscle contraction; experiment: Inhibition of KCl-stimulated rat uterine muscle strip contraction (organ bath); type: cell-based; settings: 20 μg/ml compound pretreatment for 10 min before KCl (60 mM)
Experimental: (§1) Uterine relaxing activities on OTC- and KCl-stimulated rat uterine muscle contraction were carried out according to the method described by Ostad S N, Soodi M, Shariffzadeh M, Khorshidi N, and Marzban H. (The effect of fennel essential oil on uterine contraction as a model for dysmenorrhea, pharmacology and toxicology study. Journal of Ethnopharmacology 2001; 76: 299-304.). Female virgin Sprague-Dawley rats (200 g to 300 g) were obtained from the Laboratory Animal Center at Yang-Ming University. They were primed with 5 mg/kg of estradiol (Sigma-Aldrich) 24 hours before the experiments, and then sacrificed by CO2 asphyxiation. Uterine strips free from adhering tissues were mounted under a resting tension of 1 g in a 10 ml organ bath containing dejalon solution gassed with carbogen (95% O2 and 5% CO2) at 31° C., which were then allowed to equilibrate for at least 1 hour. To evaluate the effect on the contractile response induced by PGF2a, a modified Locke-Ringer solution and a maintained temperature of 28° C. were used according to the method described by Murata. P, Hayakawa T, Satoh K, Kase Y, Ishige A, and Sasaki H. (Effects of Dai-kenchu-to, a herbal medicine, on uterine and intestinal motility. Phytotherapy Research 2001; 15: 302-6). Contractions were recorded by force displacements transducers (Grass Instruments USA) using MP100 workstation software (Biopac Systems USA) on a PC. […]

[2] = tested on: PGF2a-stimulated rat uterine muscle contraction; experiment: Inhibition of PGF2a-stimulated rat uterine muscle strip contraction (organ bath); type: cell-based; settings: 20 μg/ml compound pretreatment for 10 min before PGF2a (1 μM)
Experimental: as §1

C=CC(C)(O)CCC=C(C)C (stereo not shown) [linalool]
inhibition at 20 µg/mL [1]: 27 to 46%
inhibition of muscle contraction [2]: didn't show obvious inhibition

Cc1ccc(C(C)C)c(O)c1 [thymol]
inhibition at 20 µg/mL [1]: 27 to 46%
inhibition of muscle contraction [2]: didn't show obvious inhibition
